Values quoted from earlier work in patent publication US9585850B2, “Methods of treatment using arylcyclopropylamine compounds” (Duke University, priority 2011, dated 2017).

Test system: DDD mice
Settings: Sotnikova et al.
For `N[C@@H](Cc1ccc(O)c(O)c1)C(=O)O` [L-DOPA, L-3,4-dihydroxyphenylalanine], the “restoration of locomotion / treatment of akinesia in DDD mice” value is listed as “fully restored locomotion”. In the case of `CN1CCc2cccc3c2[C@H]1Cc1ccc(O)c(O)c1-3` [apomorphine], the “restoration of locomotion / treatment of akinesia in DDD mice” value is listed as “effective in treating akinesia”. In the case of `CCCN1C[C@H](CSC)C[C@@H]2c3cccc4[nH]cc(c34)C[C@H]21` [pergolide], the “restoration of locomotion / treatment of akinesia in DDD mice” value is given as “effective in treating akinesia”.
